The values that follow come from publication PMC8910920 (International Journal of Molecular Sciences, 2022).

Converted amounts (≈) assume the structure as drawn. “And” between values parts separate entries of the source, which are not always exact repeats. Equal entries are not always repeated.

One data set concerns DRG sensory neurons. Kind of data set: Current-clamp, membrane resting potential of DRG sensory neurons. Type of data set: cell-based, rat. The settings on record: 10 μM. The procedure:
In order to test if compound RGM8-51 could affect the membrane resting potential (MRP) of DRG sensory neurons, we also measured MRP of sensory neurons in the current-clamp mode of patch-clamp.
Changes in membrane potential were studied in neonatal DRGs isolated from 3–5 days-old Wistar rats. After isolation, DRGs were digested first using collagenase type IA (0.25% w/v) in DMEM GlutaMax with penicillin/streptomycin (P/S) solution (1% v/v) for 1 h (37 °C, 5% CO2, ThermoScientific incubator) and secondly by mechanical dissociation. Single cell suspension was passed through a […] cell strainer and washed with DMEM GlutaMax with FBS (10%v/v) and P/S solution (1% v/v). […]
For current-clamp recordings from rat DRG neurons the intracellular pipette solution contained (in mM): 4 NaCl, 126 K gluconate, 0.02 CaCl2, 1 MgSO4, 5 HEPES, 15 glucose, 3 ATP, 0.1 GTP and 5 EGTA, pH 7.2 with KOH and the extracellular solution contained (in mM): 140 NaCl, 4 KCl, 2 CaCl2, 2 MgCl2, 10 HEPES, 5 glucose and 20 mannitol, pH 7.4 with NaOH. The membrane potential was measured in the absence and the presence of compound RGM8-51 at 10 μM in a time interval of 1 min.
Data analysis: For the whole-cell patch-clamp experiments, results are expressed as the percentage of remaining activation of the TRPM8 channel. […] All data are expressed as the mean ± standard error of the mean (SEM) (n = 5–8). […]

Data set [1] can be described thus: Aqueous solubility in simulated gastric fluid. It is filed as physicochemical. As to conditions: simulated gastric conditions (pH < 5.5). The procedure:
These studies were subcontracted to Eurofins-CEREP or Eurofins-PANLABS. Briefly, agonists and antagonist assays were performed in cell cultures overexpressing the corresponding channel (CHO: TRPV1 and TRPA1; HEK293: TRPV3 and ASIC3). In vitro pharmacology, cellular channel functional assays: the compound was prepared in assay buffer to the final concentration, 10 μM. The compound wells, reference agonist and background vehicle controls were prepared in DMSO at 0.3%. The reference agonist for each Ion Channel assayed was prepared in a similar manner to serve as the assay control. […] The agonist assay was conducted on fluorimeter instruments where the test compound, vehicle controls, and reference agonist were added to the assay plate after a fluorescence baseline was established. […] For the antagonist assay, the compound was pre-incubated for five minutes at room temperature, and then challenged with the EC80 concentration of the reference agonist after establishment of a fluorescence baseline. […] Binding assay results are expressed as a percent of control specific binding. […] Aqueous solubility (μM) was determined by comparing the peak area of the principal peak in a calibration standard (200 μM) containing organic solvent (methanol/water, 60/40, v/v) with the peak area of the corresponding peak in a buffer sample. […] The amount of compound in organic phase was calculated by subtraction. […]

A further data set relates to CACO-2 cell monolayers. Kind of data set: Caco-2 permeability. It is filed as in vitro ADME. The procedure:
These studies were subcontracted to Eurofins-CEREP or Eurofins-PANLABS. Briefly, agonists and antagonist assays were performed in cell cultures overexpressing the corresponding channel (CHO: TRPV1 and TRPA1; HEK293: TRPV3 and ASIC3). In vitro pharmacology, cellular channel functional assays: the compound was prepared in assay buffer to the final concentration, 10 μM. The compound wells, reference agonist and background vehicle controls were prepared in DMSO at 0.3%. The reference agonist for each Ion Channel assayed was prepared in a similar manner to serve as the assay control. The reference agonist for each Ion Channel was included at Emax (the concentration where the reference agonist elicited a maximal response). The agonist assay was conducted on fluorimeter instruments where the test compound, vehicle controls, and reference agonist were added to the assay plate after a fluorescence baseline was established. The agonist assay was used to assess each compound’s ability to activate each Ion Channel assayed. For the antagonist assay, the compound was pre-incubated for five minutes at room temperature, and then challenged with the EC80 concentration of the reference agonist after establishment of a fluorescence baseline. Vehicle controls and EC80 concentration of reference agonist were added to appropriate wells. The antagonist assay was used to assess each compound’s ability to inhibit activation by the corresponding Ion Channel agonist. ASIC3 ionflux antagonist assay: all recordings were obtained from a holding potential of -60 mV. The compound addition sequence was as follows: one addition of pH5.5 buffer was added to establish the baseline response, the test concentration of compound was applied for 30 s, followed by the addition of pH5.5 of compound for 2 s. Binding assays were performed in CHO cell cultures overexpressing human CGRPR, CB2 and M2 receptors. RGM8-51 (10 μM) was tested, and reference compounds used as control agonists and antagonists are detailed in Table 2, footnote. Binding assay results are expressed as a percent of control specific binding. […] Aqueous solubility (μM) was determined by comparing the peak area of the principal peak in a calibration standard (200 μM) containing organic solvent (methanol/water, 60/40, v/v) with the peak area of the corresponding peak in a buffer sample. Partition coefficient: the total amount of compound was determined as the peak area of the principal peak in a calibration standard (100 μM) containing organic solvent (methanol/water, 60/40, v/v). The amount of compound in buffer was determined as the combined, volume-corrected, and weighted areas of the corresponding peaks in the aqueous phases of three organic-aqueous samples of different composition. An automated weighting system was used to ensure the preferred use of raw data from those samples with well quantifiable peak signals. The amount of compound in organic phase was calculated by subtraction. Subsequently, Log D was calculated as the Log10 of the amount of compound in the organic phase divided by the amount of compound in the aqueous phase. […] Permeability was measured in CACO-2 monolayers. Percentage of compounds in the receptors wells was measured using HPLC. […] In vitro metabolism was measured in human liver microsomes. […] The apparent intrinsic clearance (CLint, in μL/min/mg) was calculated from the half-life time.
For orientation: Passage across Caco-2 layers is used to estimate intestinal permeability.

A further data set concerns serum proteins. Kind of data set: Protein binding. It is filed as in vitro ADME, human.

For orientation: solubility means how much of the substance goes into solution per volume. Lower therefore signals little dissolved substance. Turning to `C[C@@H]1C(=O)N(C[C@H](Cc2ccccc2)N(Cc2ccccc2)Cc2ccccc2)[C@]1(Cc1ccccc1)C(=O)OC(C)(C)C` [RGM8-51, 4(S)-Benzyl-3S-methyl-4-(tert-butoxy)carbonyl-1-[(2′S-dibenzylamino-3′-phenyl)prop-1′-yl]-2-oxoazetidine], in the data set on DRG sensory neurons, the “effect on membrane resting potential (MRP)” value is reported as “did not alter the MRP”. Further, the concentration in solution in data set [1] (solubility) was 198 µM (≈ 117 µg/mL). For the same compound, the “permeation of CACO-2 cell monolayers” value with CACO-2 cell monolayers is “not able to permeate”. In addition, the “Permeability B-A (%)” value in the data set with CACO-2 cell monolayers (CACO-2 cell monolayer) was determined as 0%. For the same compound, the “Permeability A-B (%)” value with CACO-2 cell monolayers (CACO-2 cell monolayer, percentage of compound in the acceptor cell) is listed as 0%. Also, in the data set on serum proteins, the “Binding to proteins (%)” value is 100% and 99–100%.
